Results published in ChEMBL document CHEMBL1201862, “PubChem BioAssay data set” (2004).
Calls of active or inactive are those of the source.

Assays:
[1] = cells
[2] = target: T1, Oxysterols receptor LXR-beta (Homo sapiens, UniProt P55055); test: LXR agonists, Gal4 luciferase reporter, dose response, counter-screen for ssDAF-12 agonist project, cell-based, luminescence, HEK293, S. stercoralis campaign (AID 720737); type: functional; conditions: read-out: IC50 (the source's name)
T1 sequence (P55055 whole entry): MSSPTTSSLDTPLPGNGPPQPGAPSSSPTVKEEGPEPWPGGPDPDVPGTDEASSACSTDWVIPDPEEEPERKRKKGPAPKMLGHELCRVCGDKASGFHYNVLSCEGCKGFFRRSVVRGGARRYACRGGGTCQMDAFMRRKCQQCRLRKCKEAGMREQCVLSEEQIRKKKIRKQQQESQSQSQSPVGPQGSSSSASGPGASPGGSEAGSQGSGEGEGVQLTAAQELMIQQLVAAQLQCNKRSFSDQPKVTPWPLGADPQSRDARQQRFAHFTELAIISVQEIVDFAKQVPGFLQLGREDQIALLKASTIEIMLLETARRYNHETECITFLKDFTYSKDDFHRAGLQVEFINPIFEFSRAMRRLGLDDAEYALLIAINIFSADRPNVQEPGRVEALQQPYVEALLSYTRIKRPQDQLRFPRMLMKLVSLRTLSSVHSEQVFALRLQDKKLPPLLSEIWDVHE

[3] = Luminescence-based cell-based high throughput dose response assay to identify activators of the DAF-12 from the parasite S. stercoralis (ssDAF-12).; type: functional
[4] = target: Wee1-like protein kinase (Homo sapiens, UniProt P30291); test: Dose Response Cell-based Assay for Inhibitors of Wee1 Degradation. [Related pubchem assays: 1410, 1321 ]; type: functional
Chain of Wee1-like protein kinase (P30291 whole entry): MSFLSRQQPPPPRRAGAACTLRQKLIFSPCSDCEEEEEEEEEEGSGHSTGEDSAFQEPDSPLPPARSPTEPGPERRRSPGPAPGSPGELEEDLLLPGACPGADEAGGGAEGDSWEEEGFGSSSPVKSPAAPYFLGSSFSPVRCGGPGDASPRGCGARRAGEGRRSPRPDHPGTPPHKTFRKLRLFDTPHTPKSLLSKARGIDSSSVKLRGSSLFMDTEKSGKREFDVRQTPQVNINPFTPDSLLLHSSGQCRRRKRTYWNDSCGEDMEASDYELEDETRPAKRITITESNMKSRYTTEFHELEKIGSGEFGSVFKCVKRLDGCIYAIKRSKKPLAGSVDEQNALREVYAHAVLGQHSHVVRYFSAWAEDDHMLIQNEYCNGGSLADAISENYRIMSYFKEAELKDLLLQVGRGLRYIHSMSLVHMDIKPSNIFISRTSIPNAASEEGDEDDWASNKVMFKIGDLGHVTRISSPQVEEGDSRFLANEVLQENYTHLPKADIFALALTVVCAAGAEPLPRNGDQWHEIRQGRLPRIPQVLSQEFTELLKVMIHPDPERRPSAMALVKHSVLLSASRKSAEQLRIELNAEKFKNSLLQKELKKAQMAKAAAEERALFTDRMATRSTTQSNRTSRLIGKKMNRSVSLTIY

[5] = target: G2/mitotic-specific cyclin-B1 (Homo sapiens, UniProt P14635); test: Counterscreen assay for inhibitors of Wee1 degradation: dose response cell-based assay to identify inhibitors of cyclin B degradation. [Related pubchem assays: 1410, 1321 ]; type: functional
Chain of G2/mitotic-specific cyclin-B1 (P14635 whole entry): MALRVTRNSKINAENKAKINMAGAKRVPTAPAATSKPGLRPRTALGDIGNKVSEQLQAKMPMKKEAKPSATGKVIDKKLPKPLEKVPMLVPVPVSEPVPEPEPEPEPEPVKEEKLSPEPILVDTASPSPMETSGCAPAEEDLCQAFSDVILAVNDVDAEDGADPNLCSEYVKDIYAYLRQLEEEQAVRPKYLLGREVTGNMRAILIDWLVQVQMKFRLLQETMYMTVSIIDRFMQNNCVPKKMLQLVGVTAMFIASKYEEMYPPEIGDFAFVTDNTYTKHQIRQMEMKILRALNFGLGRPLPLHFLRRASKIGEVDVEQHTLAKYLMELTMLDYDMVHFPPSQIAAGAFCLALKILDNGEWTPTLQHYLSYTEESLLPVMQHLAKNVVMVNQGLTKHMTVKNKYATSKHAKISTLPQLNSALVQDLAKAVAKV

[6] = target: T1, Oxysterols receptor LXR-beta; type: functional, cell-based
[7] = target: T2, Estrogen receptor (Homo sapiens, UniProt P03372); test: ERα coactivator recruitment enhancers – biochemical, TR-FRET, ERα LBD, dose response (AID 737)
T2 sequence (P03372 whole entry): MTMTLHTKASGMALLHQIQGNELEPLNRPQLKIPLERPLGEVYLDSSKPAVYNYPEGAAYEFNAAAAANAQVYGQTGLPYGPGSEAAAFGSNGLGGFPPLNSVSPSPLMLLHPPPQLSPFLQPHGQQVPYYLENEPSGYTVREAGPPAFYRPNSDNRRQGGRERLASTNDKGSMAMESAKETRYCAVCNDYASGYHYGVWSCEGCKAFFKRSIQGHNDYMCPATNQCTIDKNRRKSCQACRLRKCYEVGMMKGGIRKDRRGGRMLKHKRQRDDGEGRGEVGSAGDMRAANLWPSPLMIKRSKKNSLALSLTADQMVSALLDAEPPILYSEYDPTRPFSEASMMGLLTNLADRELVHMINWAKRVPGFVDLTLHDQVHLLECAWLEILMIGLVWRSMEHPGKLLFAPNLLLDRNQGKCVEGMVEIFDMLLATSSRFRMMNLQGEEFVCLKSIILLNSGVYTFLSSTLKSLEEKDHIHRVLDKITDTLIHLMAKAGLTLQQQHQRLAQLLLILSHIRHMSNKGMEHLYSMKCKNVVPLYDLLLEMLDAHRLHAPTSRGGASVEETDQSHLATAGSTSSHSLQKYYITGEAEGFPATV

[8] = target: Cytochrome P450 3A4 (Homo sapiens, UniProt P08684); conditions: Potency;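 further: confirmatory qHTS run detecting inhibitors and substrates of CYP3A4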
Chain of Cytochrome P450 3A4 (P08684 whole entry): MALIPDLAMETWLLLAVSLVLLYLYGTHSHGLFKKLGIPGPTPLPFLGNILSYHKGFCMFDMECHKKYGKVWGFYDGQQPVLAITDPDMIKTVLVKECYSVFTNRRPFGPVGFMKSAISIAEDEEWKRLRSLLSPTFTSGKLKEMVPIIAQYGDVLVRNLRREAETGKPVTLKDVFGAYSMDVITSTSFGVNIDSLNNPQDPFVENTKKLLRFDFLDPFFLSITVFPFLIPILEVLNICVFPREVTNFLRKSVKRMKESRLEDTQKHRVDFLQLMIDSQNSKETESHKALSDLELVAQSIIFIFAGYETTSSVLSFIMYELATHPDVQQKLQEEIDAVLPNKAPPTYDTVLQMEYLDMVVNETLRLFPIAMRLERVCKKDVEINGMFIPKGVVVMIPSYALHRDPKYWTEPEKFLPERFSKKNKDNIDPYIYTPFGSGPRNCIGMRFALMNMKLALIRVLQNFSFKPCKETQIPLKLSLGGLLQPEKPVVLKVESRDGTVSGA

[9] = target: Cytochrome P450 2D6 (Homo sapiens, UniProt P10635); test: qHTS Assay for Inhibitors and Substrates of Cytochrome P450 2D6. [Related pubchem assays: 410 ]; type: ADME; conditions: read-out: Potency
[10] = test system: HEK293; test: PMA/Ionomycin induced NF-kB luciferase assay in 293- NF-kB-Luc stable cells. [Related pubchem assays: 1299, 1270, 1295, 1375, 1287, 1281, 1293, 1291, 1289, 1280, 465, 1364, 1282, 1372, 1365, 1370, 1367, 1366, 1269, 1373, 1292, 1290, 1302, 1371, 1283, 1271, 1294, 1374, 1368, 1369 ]; type: functional, cell-based; conditions: Homo sapiens
[11] = test system: HEK293; test: Cytotoxicity assay in HEK293 cells. [Related pubchem assays (depositor defined):AID1266, AID1269, AID1270, AID1271, AID1280, AID1281, AID1282, AID1283, AID1287, AID1289, AID1290, AID1291, AID1292, AID1293, AID1294, AID1295, AID1299, AID1302, AID1364, AID1365, AID1366, AID1367, AID1369, AID1370, AID1371, AID1372, AID1373, AID1374, AID1375, AID1384 …; type: functional, cell-based; conditions: Homo sapiens
[12] = target: Luciferin 4-monooxygenase (Photinus pyralis, UniProt P08659); test: In vitro luciferase assay using purified luciferase. [Related pubchem assays: 1299, 1270, 1295, 1375, 1287, 1281, 1293, 1291, 1289, 1280, 465, 1364, 1282, 1372, 1365, 1370, 1367, 1366, 1266, 1373, 1292, 1290, 1302, 1371, 1283, 1271, 1294, 1374, 1368, 1369 ]
Chain of Luciferin 4-monooxygenase (P08659 whole entry): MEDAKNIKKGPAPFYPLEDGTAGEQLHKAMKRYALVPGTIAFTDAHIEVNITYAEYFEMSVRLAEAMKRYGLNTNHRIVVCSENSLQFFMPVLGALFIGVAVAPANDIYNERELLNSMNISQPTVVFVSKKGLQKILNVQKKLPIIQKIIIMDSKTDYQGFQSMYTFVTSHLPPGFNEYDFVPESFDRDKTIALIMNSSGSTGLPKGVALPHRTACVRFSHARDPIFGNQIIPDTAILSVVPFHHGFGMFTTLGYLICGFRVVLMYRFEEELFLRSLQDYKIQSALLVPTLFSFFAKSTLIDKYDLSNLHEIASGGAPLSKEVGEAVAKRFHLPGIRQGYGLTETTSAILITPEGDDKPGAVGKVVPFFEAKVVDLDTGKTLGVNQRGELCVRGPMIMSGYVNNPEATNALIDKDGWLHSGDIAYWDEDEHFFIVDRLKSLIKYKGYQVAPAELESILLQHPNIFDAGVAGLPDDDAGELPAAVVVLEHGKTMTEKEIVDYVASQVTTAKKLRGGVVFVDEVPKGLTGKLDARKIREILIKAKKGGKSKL

[13] = target: Aspartyl aminopeptidase (Plasmodium falciparum 3D7, UniProt Q8I2J3)
Chain of Aspartyl aminopeptidase (Q8I2J3 whole entry): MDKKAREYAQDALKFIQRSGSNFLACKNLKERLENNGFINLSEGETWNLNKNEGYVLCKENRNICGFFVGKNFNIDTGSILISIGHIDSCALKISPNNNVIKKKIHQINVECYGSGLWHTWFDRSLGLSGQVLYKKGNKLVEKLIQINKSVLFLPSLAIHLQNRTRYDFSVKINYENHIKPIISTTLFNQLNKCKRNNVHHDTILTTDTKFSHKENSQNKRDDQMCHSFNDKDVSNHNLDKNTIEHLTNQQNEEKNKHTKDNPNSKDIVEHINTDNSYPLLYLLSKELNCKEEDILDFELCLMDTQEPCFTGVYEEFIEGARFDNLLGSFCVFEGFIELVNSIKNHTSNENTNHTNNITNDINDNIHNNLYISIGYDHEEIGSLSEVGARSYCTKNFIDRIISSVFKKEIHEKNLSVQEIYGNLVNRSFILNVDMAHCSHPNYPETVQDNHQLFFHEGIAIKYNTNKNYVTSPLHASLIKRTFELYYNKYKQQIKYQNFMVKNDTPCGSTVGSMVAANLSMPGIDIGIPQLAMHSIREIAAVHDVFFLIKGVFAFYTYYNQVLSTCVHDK

[14] = target: Procathepsin L (Homo sapiens, UniProt P07711)
Chain of Procathepsin L (P07711 whole entry): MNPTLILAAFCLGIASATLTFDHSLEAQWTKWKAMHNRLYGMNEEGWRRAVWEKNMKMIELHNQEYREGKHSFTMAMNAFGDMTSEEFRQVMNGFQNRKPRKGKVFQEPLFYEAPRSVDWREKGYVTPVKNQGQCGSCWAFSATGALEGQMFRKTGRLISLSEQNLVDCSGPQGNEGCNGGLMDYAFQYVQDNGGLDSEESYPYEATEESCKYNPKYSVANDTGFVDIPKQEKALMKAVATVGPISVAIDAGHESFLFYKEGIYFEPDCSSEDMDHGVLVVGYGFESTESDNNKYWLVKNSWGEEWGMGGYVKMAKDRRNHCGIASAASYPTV

[15] = target: T3, Alkaline phosphatase, tissue-nonspecific isozyme (Homo sapiens, UniProt P05186)
T3 sequence (P05186 whole entry): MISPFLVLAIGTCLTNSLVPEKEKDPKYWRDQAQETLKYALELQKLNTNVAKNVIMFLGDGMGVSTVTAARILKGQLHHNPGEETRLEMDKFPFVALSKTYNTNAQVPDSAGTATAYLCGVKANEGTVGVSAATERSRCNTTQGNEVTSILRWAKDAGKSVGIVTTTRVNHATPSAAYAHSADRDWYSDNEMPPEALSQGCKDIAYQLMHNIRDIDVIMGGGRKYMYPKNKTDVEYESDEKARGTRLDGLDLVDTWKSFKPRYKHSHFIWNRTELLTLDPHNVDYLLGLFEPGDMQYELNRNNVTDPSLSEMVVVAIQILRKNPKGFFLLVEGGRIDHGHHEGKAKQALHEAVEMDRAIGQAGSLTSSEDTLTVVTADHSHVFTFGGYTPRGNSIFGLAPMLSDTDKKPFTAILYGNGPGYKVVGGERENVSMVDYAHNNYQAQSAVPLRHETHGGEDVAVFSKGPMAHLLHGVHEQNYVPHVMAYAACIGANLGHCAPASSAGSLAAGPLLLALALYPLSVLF

[16] = target: Neuropeptide Y receptor type 1 (Homo sapiens, UniProt P25929); type: functional;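 further: HEK293 cells with a CNG channel challenged with NPY then isoproterenol; potency as antagonist that reverses NPY suppression of cAMP signal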
Chain of Neuropeptide Y receptor type 1 (P25929 whole entry): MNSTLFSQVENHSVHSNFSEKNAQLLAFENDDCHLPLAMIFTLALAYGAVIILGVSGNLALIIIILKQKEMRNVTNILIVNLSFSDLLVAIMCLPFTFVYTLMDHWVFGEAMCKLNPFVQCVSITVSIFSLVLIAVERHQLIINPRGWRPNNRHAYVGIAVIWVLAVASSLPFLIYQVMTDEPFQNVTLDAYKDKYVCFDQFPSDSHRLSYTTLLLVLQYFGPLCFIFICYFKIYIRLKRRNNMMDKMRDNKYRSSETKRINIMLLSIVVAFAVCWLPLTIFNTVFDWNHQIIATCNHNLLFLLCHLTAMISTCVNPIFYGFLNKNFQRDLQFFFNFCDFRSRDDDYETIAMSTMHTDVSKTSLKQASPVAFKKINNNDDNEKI

[17] = target: Neuropeptide Y receptor type 2 (Homo sapiens, UniProt P49146); type: functional, cell-based;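 further: HEK293 cells expressing the receptor and a CNG channel; stimulus was NPY near EC95 followed by isoproterenol to raise cAMP; antagonist potency measured as restoring cAMP signal that NPY suppresses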
Chain of Neuropeptide Y receptor type 2 (P49146 whole entry): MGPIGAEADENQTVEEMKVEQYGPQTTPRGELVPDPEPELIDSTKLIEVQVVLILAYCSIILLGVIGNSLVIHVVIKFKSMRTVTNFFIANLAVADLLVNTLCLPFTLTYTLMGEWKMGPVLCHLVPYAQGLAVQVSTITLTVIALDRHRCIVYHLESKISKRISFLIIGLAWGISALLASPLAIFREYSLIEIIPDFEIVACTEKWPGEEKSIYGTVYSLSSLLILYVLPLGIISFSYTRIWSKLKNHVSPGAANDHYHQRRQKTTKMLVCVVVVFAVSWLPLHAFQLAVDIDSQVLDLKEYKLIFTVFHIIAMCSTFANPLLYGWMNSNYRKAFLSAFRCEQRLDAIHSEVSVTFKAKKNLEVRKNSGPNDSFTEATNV

[18] = target: Serine/threonine-protein phosphatase PP1-alpha catalytic subunit (Homo sapiens, UniProt P62136); test: inhibition of protein phosphatase 1 activity – biochemical, fluorescence, dose response (AID 2403);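 further: phosphatase turnover of OMFP into fluorescent 3-O-methylfluorescein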
Chain of Serine/threonine-protein phosphatase PP1-alpha catalytic subunit (P62136 whole entry): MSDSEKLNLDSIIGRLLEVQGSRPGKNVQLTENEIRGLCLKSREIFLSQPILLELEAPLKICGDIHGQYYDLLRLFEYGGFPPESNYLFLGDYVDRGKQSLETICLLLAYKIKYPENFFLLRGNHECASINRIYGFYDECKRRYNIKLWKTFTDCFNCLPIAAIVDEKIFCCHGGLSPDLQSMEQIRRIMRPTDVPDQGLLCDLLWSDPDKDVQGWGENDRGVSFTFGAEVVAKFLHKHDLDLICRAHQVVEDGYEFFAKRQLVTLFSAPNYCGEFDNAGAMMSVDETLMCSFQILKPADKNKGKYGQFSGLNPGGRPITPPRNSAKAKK

[19] = test system: Streptococcus; test: GAS UMAA2166 growth inhibition – luminescence, BacTiterGlo, counter-screen for streptokinase expression inhibitor project, dose response (AID 1915); type: functional, organism-based;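 further: potency for reduction of bacterial viability or growth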
[20] = test system: Streptococcus sp. 'group A'; test: Streptococcus pyogenes SK(-)GAS viability under kanamycin – luminescence, BacTiterGlo, confirmation, counter-screen for streptokinase expression inhibitor project, dose response (AID 1900); type: functional, organism-based
[21] = target: Serine/threonine-protein phosphatase (Homo sapiens, UniProt Q9BPW0); test: Counterscreen for inhibitors of PP1: fluorescence-based biochemical high throughput dose response assay to identify inhibitors of Protein Phosphatase 5 (PP5). [Related pubchem assays: 2034 (Summary (PP5 inhibitors)), 1987 (PP5 inhibitors in singlate), 2235 (PP1 inhibitors in singlate)]
Chain of Serine/threonine-protein phosphatase (Q9BPW0 whole entry): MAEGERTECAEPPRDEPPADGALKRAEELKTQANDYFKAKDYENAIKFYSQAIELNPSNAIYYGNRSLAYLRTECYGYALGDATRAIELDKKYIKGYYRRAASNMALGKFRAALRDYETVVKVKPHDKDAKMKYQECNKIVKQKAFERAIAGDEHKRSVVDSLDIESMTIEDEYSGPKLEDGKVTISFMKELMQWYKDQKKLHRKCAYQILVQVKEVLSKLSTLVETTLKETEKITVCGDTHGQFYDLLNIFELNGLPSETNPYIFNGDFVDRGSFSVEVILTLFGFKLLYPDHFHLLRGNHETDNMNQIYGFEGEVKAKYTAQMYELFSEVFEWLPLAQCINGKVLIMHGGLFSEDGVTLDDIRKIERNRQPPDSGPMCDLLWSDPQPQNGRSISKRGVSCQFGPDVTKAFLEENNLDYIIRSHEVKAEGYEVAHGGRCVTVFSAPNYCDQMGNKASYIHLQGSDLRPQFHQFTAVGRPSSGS

[22] = viability of HCT116 lacking mutant beta-catenin – cell-based, human colon tumor, dose response (AID 1045); type: functional;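 further: HCT116 colon tumor cells with beta catenin knocked out; cells exposed to compound for 60 hours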
[23] = target: T4, Streptokinase A (Streptococcus pyogenes serotype M1, UniProt P10520); test: viability-normalized secreted streptokinase activity reduction – plasminogen activation absorbance, OD405, dose response (AID 1914); type: functional, Streptococcus pyogenes M1 GAS;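 further: secreted streptokinase activity via plasminogen activation per viability signal from cell pellet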
T4 sequence (P10520 whole entry): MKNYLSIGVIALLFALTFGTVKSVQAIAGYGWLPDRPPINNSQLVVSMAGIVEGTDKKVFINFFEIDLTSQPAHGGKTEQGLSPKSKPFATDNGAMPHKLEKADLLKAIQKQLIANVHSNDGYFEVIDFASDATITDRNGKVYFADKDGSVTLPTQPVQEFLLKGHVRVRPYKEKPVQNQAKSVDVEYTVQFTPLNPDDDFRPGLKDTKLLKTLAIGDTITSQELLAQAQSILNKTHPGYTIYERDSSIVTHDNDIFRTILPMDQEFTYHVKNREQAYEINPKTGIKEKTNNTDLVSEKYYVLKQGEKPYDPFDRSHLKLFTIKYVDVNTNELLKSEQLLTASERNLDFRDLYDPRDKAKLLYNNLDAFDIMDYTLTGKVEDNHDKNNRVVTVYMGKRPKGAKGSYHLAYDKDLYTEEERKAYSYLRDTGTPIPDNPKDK

[24] = viability of PTEN-deleted HCT116 cells – cell-based, HCT116 PTEN knockout, dose response (AID 1047); type: functional;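 further: HCT116 colon tumor cells with PTEN knocked out; cells exposed to compound for 60 hours before readout; potency for loss of cell viability measured by luminescence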
[25] = M. tuberculosis H37Rv growth inhibitors, H37Rv strain (AID 1626); type: functional
[26] = antiviral protection against BTV-induced cell death – arbovirus, BSR cells, confirmation (AID 1250); type: functional;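 further: protection from viral cytopathic effect measured as cell viability by ATP luminescence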
[27] = viability of uninfected HEp-2 cells – cell-based, HTS, cytotoxicity control for RSV inhibitor project, dose response (AID 2410); type: functional; conditions: human respiratory syncytial virus
[28] = A Cell Based Assay for the Identification of Probe candidate Compounds with Anti- Venezuelan Equine Encephalitis virus. [Related pubchem assays: 2409, 2419, 1621, 2238, 2405, 2024, 2065, 2402, 2414, 1635, 1650, 2244 ]; type: functional
[29] = test system: Vero; test: Vero cell viability after compound exposure – synthesized analogs, set II, cytotoxicity control for West Nile virus antiviral project, SAR follow-up (AID 2402); type: functional; conditions: Chlorocebus sabaeus
[30] = test system: Vero; test: host cell viability loss, Vero E6 – synthesized analogs, cytotoxicity control for West Nile virus antiviral project, SAR follow-up (AID 2244); type: functional; conditions: Chlorocebus sabaeus
[31] = test system: Vero; test: Vero 76 cell viability after compound exposure – Vero 76 cells, synthesized analogs, cytotoxicity control for West Nile virus antiviral project, SAR follow-up (AID 2414); type: functional; conditions: Chlorocebus sabaeus
[32] = target: Peroxisome proliferator-activated receptor gamma/Nuclear receptor coactivator 2 (Homo sapiens, UniProt P37231); type: functional;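 further: agonist potency for raising coactivator recruitment to the receptor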
[33] = target: Peroxisome proliferator-activated receptor gamma/Nuclear receptor coactivator 3 (Homo sapiens, UniProt P37231); type: functional;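 further: agonist potency for raising coactivator recruitment to the receptor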
[34] = target: Peroxisome proliferator-activated receptor gamma/Nuclear receptor coactivator 1 (Homo sapiens, UniProt P37231); type: functional;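 further: agonist potency as compounds enhance coactivator SRC-1 recruitment to PPARgamma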

In the case of `CC(=O)Nc1ccc(/C=N/Nc2nc3ccccc3s2)cc1`, the EC50 [1] is reported as > 67.5 µM (inactive), the EC50 [2] is reported as > 67.5 µM (inactive) and the IC50 [3] is reported as > 67.5 µM (inactive). The EC50 [4] was > 49.7 µM (not active), the EC50 [5] was > 49.7 µM (not active) and the EC50 [6] was > 67.5 µM (inactive).

With `O=C(Cn1ncc2c(=O)oc3ccccc3c21)Nc1nc2ccccc2s1` the EC50 [7] was 6.23 µM (active).

In the case of `Cc1nc(/N=N\c2ccc(C(=O)O)cc2)c(COP(=O)(O)O)c(C=O)c1O`, the AC50 [8] is reported as 10 µM (inconclusive) and the AC50 [9] is reported as 39.8 µM (inconclusive).

With `COc1ccc(/C=N/NC(=O)c2n[nH]c3c2CCC3)cc1O` the EC50 [10] was 4.21 µM (not active), the EC50 [11] was > 8 µM (inactive) and the EC50 [12] was > 8 µM (not active).

For `COc1ccc(Cl)cc1NC(=O)Nn1cnnc1`, the IC50 [13] was 0.832 µM (active) and the IC50 [14] was > 59.6 µM (not active).

In the case of `Cn1cc(Cl)c(C(=O)NNC(=S)NC2CCCCC2)n1`, the EC50 [15] is reported as 41 µM (active).

For `COc1ccccc1OCCCCN1CCN(C(c2ccccc2)c2ccccc2)CC1`, the IC50 [16] was > 35 µM (not active) and the IC50 [17] was > 35 µM (not active).

With `COc1cnc(-c2ccccn2)nc1Sc1ccc(Cl)cc1` the IC50 [18] was 6.47 µM (active), the EC50 [19] was 15.3 µM (active) and the EC50 [20] was 9.35 µM (active). For the same compound, the IC50 [21] was > 67 µM (not active), the EC50 [22] was 18.6 µM (active) and the EC50 [23] was > 150 µM (not active). The EC50 [24] was 21.6 µM (active).

With `O=C(COC(=O)/C=C/c1nc2ccccc2s1)Nc1cccc(Cl)c1Cl` the IC50 [25] was > 100 µM (active).

With `COc1ccc(-c2nc(NC(=O)c3nnc(O)c4ccccc34)sc2C)cc1` the IC50 [26] was > 100 µM (active) and the CC50 [27] was 40.5 µM (active).

For `COc1cccc(C(NC(=O)c2ccccc2)c2ccc3cccnc3c2O)c1` (centres undefined), the IC50 [28] was 5.63 µM (active), the CC50 [29] was 2.2 µM (active) and the CC50 [30] was 1.94 µM (active). For the same compound, the CC50 [31] was 6.07 µM (active).

With `Cc1cc(=O)[nH]c2c1c(C)nn2C1CCCC1` the EC50 [32] was > 79.4 µM (not active), the EC50 [33] was > 79.4 µM (not active) and the EC50 [34] was > 79.4 µM (not active).
